# Test results as given in PMC5999115, “Anti-tumor activity of phenoxybenzamine and its inhibition of histone deacetylases” (PLoS ONE, 2018).
# pIC50: −log10 of the molar value.
# Legend:
# [1] = Aqueous solubility in the NCI60 assay conditions; assay type: physicochemical
# Description: The reason for the lack of activity after dissolution in DMSO has not been pursued further, but DMSO was eliminated in all subsequent assay systems.
# HDAC8 = molecular target: T1, HDAC8 (Homo sapiens, UniProt Q9BY41); assay: Fluorogenic HDAC deacetylase assay (BPS Bioscience); assay type: biochemical
# T1 construct: purchased BPS Bioscience 50008
# [2] = tested on: cultures of 60 human tumors; assay: NCI60 human tumor culture screen, initial study with DMSO dissolution; assay type: cell-based; conditions: initially dissolved in DMSO
# Method: The results of these studies were included in an application for the screening of PBZ in the National Cancer Institute NCI60 screening program (https://dtp.cancer.gov/discovery_development/nci-60); they measured its effects on growth in cultures of 60 human tumors. This initial screen was conducted at only one drug concentration, 10 μM. We supplied the United States Pharmacopeial reference standard of PBZ-hydrochloride in powder form. The NCI60 standard procedure for dissolution of a synthetic molecule like PBZ involved initial dilution in 9:1 dimethyl sulfoxide (DMSO): glycerol at a concentration of 4 mM; the solution was then diluted 1:200 with complete culture medium (RPMI 1640 medium containing 5% fetal calf serum (FCS), 2 mM L-glutamine and 50 μg/ml gentamicin to give a final concentration of 20 μM; 100 μl of the drug-medium mixture was added to 100 μl of the cell cultures already in complete medium. The microtiter plates were incubated for 48 hr at 37°C, 5% CO2, 95% air, and 100% relative humidity (see S1 Appendix for further details).
# HDAC6 = molecular target: T2, HDAC6 (Homo sapiens, UniProt Q9UBN7); assay: Fluorogenic HDAC deacetylase assay (BPS Bioscience); assay type: biochemical
# T2 construct: purchased BPS Bioscience 50006
# HDAC3/NCOR2 = molecular target: T3, HDAC3/NCOR2 (Homo sapiens, UniProt O15379); assay: as above; assay type: biochemical
# T3 construct: purchased BPS Bioscience 50003
# HDAC4 = molecular target: T4, HDAC4 (Homo sapiens, UniProt P56524); assay: as above; assay type: biochemical; conditions: read-out: % inhibition @ 10 uM
# T4 construct: purchased BPS Bioscience 50004
# HDAC11 = molecular target: T5, HDAC11 (Homo sapiens, UniProt Q96DB2); assay: as above; assay type: biochemical; conditions: read-out: % inhibition @ 10 uM
# T5 construct: purchased BPS Bioscience 50011
# [3] = tested on: pulmonary arterial hypertension in a rat model; parameters: method as in earlier work; conditions: daily injections following monocrotaline; after 4 weeks of treatment; cited from earlier work
# HDAC9 = molecular target: T6, HDAC9 (Homo sapiens, UniProt Q9UKV0); assay: Fluorogenic HDAC deacetylase assay (BPS Bioscience); assay type: biochemical
# T6 construct: purchased BPS Bioscience 50009
# T6 sequence (Q9UKV0 1-1066 isoform Q9UKV0-5): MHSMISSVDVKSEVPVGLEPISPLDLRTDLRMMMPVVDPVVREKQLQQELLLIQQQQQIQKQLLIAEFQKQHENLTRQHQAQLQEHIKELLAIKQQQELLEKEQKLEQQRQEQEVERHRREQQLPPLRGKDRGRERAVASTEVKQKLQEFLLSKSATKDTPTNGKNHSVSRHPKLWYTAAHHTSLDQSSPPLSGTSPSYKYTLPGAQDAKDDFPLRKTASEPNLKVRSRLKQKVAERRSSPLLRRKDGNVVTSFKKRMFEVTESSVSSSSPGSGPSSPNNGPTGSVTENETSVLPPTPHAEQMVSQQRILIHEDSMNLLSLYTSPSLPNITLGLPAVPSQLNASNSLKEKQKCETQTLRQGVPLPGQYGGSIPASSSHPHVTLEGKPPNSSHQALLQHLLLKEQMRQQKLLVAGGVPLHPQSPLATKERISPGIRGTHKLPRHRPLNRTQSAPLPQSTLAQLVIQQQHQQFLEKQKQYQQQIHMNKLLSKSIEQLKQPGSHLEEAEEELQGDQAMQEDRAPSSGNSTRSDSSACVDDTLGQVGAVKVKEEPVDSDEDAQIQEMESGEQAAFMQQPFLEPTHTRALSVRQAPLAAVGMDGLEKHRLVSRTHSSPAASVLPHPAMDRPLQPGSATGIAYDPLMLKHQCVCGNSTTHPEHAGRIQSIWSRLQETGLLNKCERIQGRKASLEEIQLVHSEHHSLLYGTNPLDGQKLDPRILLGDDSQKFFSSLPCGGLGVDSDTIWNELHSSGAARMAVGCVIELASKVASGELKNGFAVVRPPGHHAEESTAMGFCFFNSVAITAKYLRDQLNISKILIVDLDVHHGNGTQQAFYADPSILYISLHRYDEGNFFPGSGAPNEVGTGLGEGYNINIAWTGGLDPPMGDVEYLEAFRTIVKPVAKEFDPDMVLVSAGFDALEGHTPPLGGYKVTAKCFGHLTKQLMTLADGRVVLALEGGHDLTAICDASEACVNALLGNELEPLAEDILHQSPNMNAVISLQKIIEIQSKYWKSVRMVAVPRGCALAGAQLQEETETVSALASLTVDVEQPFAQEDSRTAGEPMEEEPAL
# T1 sequence (Q9BY41 whole entry): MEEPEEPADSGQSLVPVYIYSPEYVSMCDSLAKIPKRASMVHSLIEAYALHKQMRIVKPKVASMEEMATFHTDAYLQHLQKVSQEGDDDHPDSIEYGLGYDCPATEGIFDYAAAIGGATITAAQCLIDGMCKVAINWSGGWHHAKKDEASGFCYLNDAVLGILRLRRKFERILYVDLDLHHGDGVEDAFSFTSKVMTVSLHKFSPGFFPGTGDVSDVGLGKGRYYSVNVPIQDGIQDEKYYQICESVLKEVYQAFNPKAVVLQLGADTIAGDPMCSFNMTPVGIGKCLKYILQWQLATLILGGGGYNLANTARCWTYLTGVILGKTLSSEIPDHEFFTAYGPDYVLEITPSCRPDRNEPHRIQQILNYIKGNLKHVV
# T3 sequence (O15379 whole entry): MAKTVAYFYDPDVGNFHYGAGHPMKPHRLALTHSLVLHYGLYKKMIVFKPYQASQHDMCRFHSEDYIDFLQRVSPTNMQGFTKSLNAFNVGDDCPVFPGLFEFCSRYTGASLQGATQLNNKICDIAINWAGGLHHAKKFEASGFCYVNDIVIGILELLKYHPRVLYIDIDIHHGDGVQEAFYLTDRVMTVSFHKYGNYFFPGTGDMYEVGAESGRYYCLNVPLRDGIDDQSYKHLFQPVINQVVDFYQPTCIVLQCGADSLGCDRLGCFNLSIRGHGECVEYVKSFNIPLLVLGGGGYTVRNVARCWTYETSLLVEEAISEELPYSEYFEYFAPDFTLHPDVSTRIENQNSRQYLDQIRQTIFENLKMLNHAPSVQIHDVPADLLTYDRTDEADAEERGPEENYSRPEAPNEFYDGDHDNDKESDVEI
# T3 sequence (Q9Y618 395-489 partner limits assumed): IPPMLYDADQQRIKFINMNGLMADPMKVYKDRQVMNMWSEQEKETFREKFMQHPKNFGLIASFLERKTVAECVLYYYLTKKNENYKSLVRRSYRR
# T5 sequence (Q96DB2 whole entry): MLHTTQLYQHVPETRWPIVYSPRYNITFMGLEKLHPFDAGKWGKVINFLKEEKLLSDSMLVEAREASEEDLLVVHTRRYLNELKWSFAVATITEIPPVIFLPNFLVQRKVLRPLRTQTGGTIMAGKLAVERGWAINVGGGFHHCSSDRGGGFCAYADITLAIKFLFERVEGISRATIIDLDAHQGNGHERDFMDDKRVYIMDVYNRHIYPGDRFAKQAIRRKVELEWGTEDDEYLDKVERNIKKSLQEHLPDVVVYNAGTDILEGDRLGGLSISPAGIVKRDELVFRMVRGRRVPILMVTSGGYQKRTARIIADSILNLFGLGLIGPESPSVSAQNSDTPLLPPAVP
# T4 sequence (P56524 627-1084 limits assumed): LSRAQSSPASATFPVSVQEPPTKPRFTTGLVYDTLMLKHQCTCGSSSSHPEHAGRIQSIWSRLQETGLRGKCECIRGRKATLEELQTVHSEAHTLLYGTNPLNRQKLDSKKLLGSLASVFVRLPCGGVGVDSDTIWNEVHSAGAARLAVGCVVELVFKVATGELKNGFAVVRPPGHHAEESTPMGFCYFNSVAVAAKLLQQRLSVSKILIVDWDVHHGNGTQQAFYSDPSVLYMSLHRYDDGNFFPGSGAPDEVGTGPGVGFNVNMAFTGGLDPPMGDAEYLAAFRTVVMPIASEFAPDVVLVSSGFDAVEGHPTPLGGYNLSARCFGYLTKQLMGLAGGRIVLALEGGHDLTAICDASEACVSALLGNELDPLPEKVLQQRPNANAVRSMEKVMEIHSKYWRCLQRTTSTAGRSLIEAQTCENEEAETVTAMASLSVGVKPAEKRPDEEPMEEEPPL
# T2 sequence (Q9UBN7 whole entry): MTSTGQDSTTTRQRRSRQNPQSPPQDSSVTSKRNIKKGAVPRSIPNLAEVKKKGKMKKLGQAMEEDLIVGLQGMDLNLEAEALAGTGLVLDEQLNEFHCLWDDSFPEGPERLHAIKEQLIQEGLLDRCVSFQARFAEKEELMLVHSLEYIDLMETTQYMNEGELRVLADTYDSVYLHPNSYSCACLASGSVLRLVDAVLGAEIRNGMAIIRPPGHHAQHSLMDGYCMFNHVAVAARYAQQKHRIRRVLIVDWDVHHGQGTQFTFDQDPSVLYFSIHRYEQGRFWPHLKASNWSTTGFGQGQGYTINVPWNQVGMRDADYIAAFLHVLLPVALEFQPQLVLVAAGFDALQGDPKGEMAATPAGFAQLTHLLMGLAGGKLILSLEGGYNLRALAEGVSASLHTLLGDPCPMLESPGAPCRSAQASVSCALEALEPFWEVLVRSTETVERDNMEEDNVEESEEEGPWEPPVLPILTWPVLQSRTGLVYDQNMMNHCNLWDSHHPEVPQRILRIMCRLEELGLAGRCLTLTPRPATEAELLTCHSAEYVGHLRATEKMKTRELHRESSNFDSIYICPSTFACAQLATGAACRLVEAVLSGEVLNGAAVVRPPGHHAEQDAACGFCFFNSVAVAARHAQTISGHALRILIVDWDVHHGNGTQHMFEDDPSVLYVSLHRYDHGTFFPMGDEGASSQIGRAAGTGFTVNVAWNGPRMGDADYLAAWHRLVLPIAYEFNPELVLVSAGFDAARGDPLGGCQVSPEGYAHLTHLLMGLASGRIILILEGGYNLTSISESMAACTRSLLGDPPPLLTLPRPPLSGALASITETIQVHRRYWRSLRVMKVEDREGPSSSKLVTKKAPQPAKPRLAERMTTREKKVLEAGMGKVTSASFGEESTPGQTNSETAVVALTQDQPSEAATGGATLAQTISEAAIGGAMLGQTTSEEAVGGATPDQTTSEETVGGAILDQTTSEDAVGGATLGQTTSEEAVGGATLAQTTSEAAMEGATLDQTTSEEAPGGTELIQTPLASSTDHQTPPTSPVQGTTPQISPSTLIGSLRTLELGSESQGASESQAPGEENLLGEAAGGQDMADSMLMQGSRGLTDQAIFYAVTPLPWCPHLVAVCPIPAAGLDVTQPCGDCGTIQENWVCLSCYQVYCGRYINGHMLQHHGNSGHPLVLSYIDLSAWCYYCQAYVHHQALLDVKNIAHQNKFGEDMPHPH
smiles,measurement,setting,value
"CC(COc1ccccc1)N(CCCl)Cc1ccccc1 (stereo not drawn) [PBZ, phenoxybenzamine]",aqueous solubility,[1],adequate aqueous solubility
same,% inhibition @ 10 uM,"HDAC8; HDAC8, 10 µM",~30%
same,inhibition at 10 µM,"HDAC8; read-out: % inhibition @ 10 uM, HDAC8",34%
same,biological effect in NCI60 screen,[2],essentially no biological effect
same,pIC50,HDAC6,6.23
same,% inhibition @ 10 uM,"HDAC3/NCOR2; HDAC3/NCOR2, 10 µM",~30%
same,inhibition at 10 µM,"HDAC3/NCOR2; read-out: % inhibition @ 10 uM, HDAC3/NCOR2",31%
same,inhibition at 10 µM,HDAC4,25%
same,inhibition at 10 µM,HDAC11,0%
same,decrease in right-ventricular hypertrophy,[3],69%
same,inhibition in the increase in medial thickening of pulmonary arteries,[3],80%
same,pIC50,HDAC9,5.28
